# Measured values published in patent US11976063B2, “Pharmaceutical composition comprising berberine and ursodeoxycholic acid for the treatment of various diseases or disorders” (priority 2014, dated 2024).
# What was measured:
# [1] = tested on: high fat diet (HFD) induced fatty liver golden hamster; assay: High fat diet-induced fatty liver golden hamster model (Example 6); assay type: in vivo, golden hamsters; details: for Serum TC level on Day 0 / Serum TG level on Day 0: Day 0 (before treatment); for Serum TC level on Day 0 / Serum TG level on Day 0 / Serum TC level, Week 1 / Serum TG level, Week 1 / Serum TC level, Week 3 / Serum TG level, Week 3 / Serum TC level, Week 5 / Serum TG level, Week 5 / Serum TC level, Week 7 / Serum TG level, Week 7: X ± s, n = 8
# Text: This example describes an in vivo efficacy study of BUDCA salt disclosed in the present invention using a high fat diet (HFD) induced fatty liver golden hamster model.
# Forty-two SPF golden hamsters with the body weight of 90-100 g were acquired from Vital River Laboratory Animal Technology Co., Ltd. After acclimatization for one week, eight hamsters were selected as normal control group (Group 1), which were fed with normal chow diet. The rest thirty-four hamsters were fed with HFD for two weeks to establish a fatty liver animal model resembling the pathophysiology of NAFLD in human.
# For the thirty-four hamsters induced with HFD, twenty-four of them with TC level of 17.96±1.70 mmol/L at the fourteenth day post of HFD were selected and randomized into three groups (n=8 per group): • Group 2: Model control (0.5% tragacanth solution 10 ml/kg); • Group 3: Low-dose (BUDCA 50 mg/kg); • Group 4: High-dose (BUDCA 200 mg/kg)
# The hamsters from Group 2 to 4 were treated with corresponding testing articles indicated above once a day by intragastric gavage, and HFD continued throughout the duration of the 7-week administration. The normal hamsters in Group 1 were treated with 0.5% tragacanth solution (10 ml/kg) by intragastric gavage. Serum lipid and blood glucose level, liver function index, food intake and body weight were measured throughout the study. After the 7-week administration, the hamsters were sacrificed and dissected for the general observation and histopathological analysis of liver tissue.
# [2] = tested on: high fat diet (HFD) induced non-alcoholic fatty liver mice; assay: High fat diet induced non-alcoholic fatty liver mice model (Example 5); assay type: in vivo, NIH male mice; details: for Body weight / Weight ratio of liver / ALT / AST / HDL-C / LDL-C / MDA / SOD / TC / TG: i.g. once daily, HFD, mean ± S.E.M; for ALT / AST / HDL-C / LDL-C / MDA / SOD / TC / TG: serum
# Text: This example describes an in vivo efficacy study of BUDCA disclosed in the present invention using a high fat diet (HFD) induced non-alcoholic fatty liver mice model.
# 91 NIH male mice of 4 weeks old were obtained from Vital River Laboratories (Beijing, China). After acclimatization for one week, 13 mice were selected as control group (Group 1, G1) with normal chow diet fed, and the other 78 mice were fed with HFD (in which 40% of calories is from fat) for 4 weeks to establish an animal model resembling the pathophysiology of non-alcoholic fatty liver in human.
# Following 4 weeks of high fat dietary intervention, the 78 mice were divided into 6 groups according to body weight (n=13 per group): • Group 2, G2: Vehicle control (0.5% CMC-Na solution) • Group 3, G3: Low-dose group of BUDCA (30 mg/kg) • Group 4, G4: Middle-dose group of BUDCA (100 mg/kg) • Group 5, G5: High-dose group of BUDCA (300 mg/kg) • Group 6, G6: BBR control group (Berberine HCl, 150 mg/Kg) • Group 7, G7: UDCA control group (Ursodeoxycholic acid, 150 mg/Kg)
# The mice from G2 to G7 were administered with the corresponding testing articles indicated above once daily by intragastric gavage. HFD continued throughout the duration of the treatment of 6 weeks. The normal mice (G1) were treated with vehicle (0.5% CMC-Na solution) via intragastric gavage. At the end of experiment, the following biochemical parameters were measured and tests were carried out: • Body weight, the weight ratio of liver • Total cholesterol (TC) and triglyceride (TG) levels, high density lipoprotein cholesterol (HDL-C) and low density lipoprotein cholesterol (LDL-C) levels • Alanine aminotransferase (ALT) and aspartate aminotransferase (AST) levels • Superoxide dismutase (SOD) activity and malondialdehyde (MDA) level • Oral glucose tolerance test (OGTT) • Histopathological examination of liver ([…] staining)
# After 6 weeks treatment, blood was collected via retro-orbital bleeding of each 12-hour fasted animal. Liver was harvested by surgery for histopathology analysis after weight measurement. Then the serum was isolated for the determination of TC, TG, HDL-C, LDL-C, ALT, AST, SOD and MDA.
# One week before sacrifice (Week 5 of treatment), an oral glucose tolerance test (OGTT) was performed in 12-hour fasted animals. For the OGTT, all mice received an oral glucose challenge at 2.0 g/Kg and the blood glucose concentrations were determined by glucometer (ACCU-CHEK Active, Roche) at 0, 30, 60, 90 and 120 min.
# The liver tissue was histopathologically evaluated by […] staining after frozen section.
# [3] = BUDCA 50 mg/kg i.g. once a day, Week 1
# [4] = BUDCA 200 mg/kg i.g. once a day, Week 1
# [5] = BUDCA 200 mg/kg i.g. once a day
# [6] = both high-dose and low-dose group, P<0.01, FIG. 16
# [7] = both medicated groups, P<0.01, FIG. 22
structure (smiles),measurement,setting,value
"COc1ccc2cc3[n+](cc2c1OC)CCc1cc2c(cc1-3)OCO2.C[C@H](CCC(=O)[O-])[C@H]1CC[C@H]2[C@@H]3[C@@H](O)C[C@@H]4C[C@H](O)CC[C@]4(C)[C@H]3CC[C@]12C [BUDCA, berberine ursodeoxycholate]",Dose dependence of the effects,"[1]; 50 vs 200 mg/kg, 7 weeks",relatively dose-dependent
same,Serum TC level on Day 0,[1]; BUDCA 50 mg/kg group,18.14 ± 1.13 mmol/L
same,Serum TG level on Day 0,[1]; BUDCA 50 mg/kg group,5.97 ± 1.19 mmol/L
same,"Serum TC level, Week 1",[1]; [3],9.33 ± 1.52 mmol/L
same,"Serum TG level, Week 1",[1]; [3],3.60 ± 0.78 mmol/L
same,"Serum TC level, Week 3",[1]; BUDCA 50 mg/kg i.g. once a day,7.58 ± 2.01 mmol/L
same,"Serum TG level, Week 3",[1]; BUDCA 50 mg/kg i.g. once a day,2.98 ± 1.31 mmol/L
same,"Serum TC level, Week 5",[1]; BUDCA 50 mg/kg i.g. once a day,10.50 ± 2.89 mmol/L
same,"Serum TG level, Week 5",[1]; BUDCA 50 mg/kg i.g. once a day,4.51 ± 3.10 mmol/L
same,"Serum TC level, Week 7",[1]; BUDCA 50 mg/kg i.g. once a day,9.78 ± 2.58 mmol/L
same,"Serum TG level, Week 7",[1]; BUDCA 50 mg/kg i.g. once a day,3.88 ± 1.21 mmol/L
same,Serum TC level on Day 0,[1]; BUDCA 200 mg/kg group,18.18 ± 1.10 mmol/L
same,Serum TG level on Day 0,[1]; BUDCA 200 mg/kg group,6.31 ± 1.75 mmol/L
same,"Serum TC level, Week 1",[1]; [4],7.51 ± 0.71 mmol/L
same,"Serum TG level, Week 1",[1]; [4],3.00 ± 0.67 mmol/L
same,"Serum TC level, Week 3",[1]; [5],6.75 ± 1.00 mmol/L
same,"Serum TG level, Week 3",[1]; [5],2.68 ± 1.09 mmol/L
same,"Serum TC level, Week 5",[1]; [5],5.38 ± 1.24 mmol/L
same,"Serum TG level, Week 5",[1]; [5],3.04 ± 1.68 mmol/L
same,"Serum TC level, Week 7",[1]; [5],4.95 ± 0.84 mmol/L
same,"Serum TG level, Week 7",[1]; [5],1.90 ± 0.66 mmol/L
same,AI value (arterial stiffness index) vs model control group,[1]; [6],significantly decreased
same,Serum LDL-c level vs model control group,[1]; [6],significantly decreased
same,Value of TC/HDL-c vs model control group,[1]; [6],significantly decreased
same,TC level vs model control group,"[1]; both low-dose (50 mg/kg) and high-dose (200 mg/kg) group, P<0.01",significantly declined
same,Food intake vs model control group,"[1]; both medicated groups (50 and 200 mg/kg), P>0.05",no significant difference on food intake
same,Serum AST level vs model control group,"[1]; both medicated groups, after 7-week administration, P<0.01, FIG. 17",significantly declined
same,Serum ALT level vs model control group,"[1]; both medicated groups, after 7-week administration, P<0.01, FIG. 18",significantly declined
same,Color of livers vs model control group,"[1]; both medicated groups, FIG. 20",improved
same,Liver weight vs model control group,"[1]; both medicated groups, P<0.01, FIG. 19",significantly decreased
same,Content of TC and TG in liver vs model control group,"[1]; both medicated groups, P<0.01, FIG. 21",significantly decreased
same,Inflammation score of liver tissue vs model control group,[1]; [7],significantly decreased
same,Positive area for oil red vs model control group,[1]; [7],significantly decreased
same,"TG level vs model control group, Week 1 and Week 7","[1]; high-dose group (200 mg/kg), Week 1 and Week 7, P<0.01",significantly declined
same,"Serum LDL-c level, value of TC/HDL-c and AI value compared with normal control group","[1]; high-dose group (200 mg/kg), after 7-week administration",very similar to those of normal control group
same,HDL-c level vs model control group,"[1]; high-dose group (200 mg/kg), P<0.01",significantly declined
same,"Body weight, first week of treatment","[1]; high-dose group (200 mg/kg), P<0.05",significantly reduced in the first week of treatment
same,"Body weight, rest time of treatment","[1]; high-dose group (200 mg/kg), P>0.05",no significant changes were observed in the rest time of treatment
same,Color of livers,"[1]; high-dose group (200 mg/kg), similar to normal control group",ruddy
same,Body weight vs model control group,"[1]; low-dose and high-dose group, at sacrifice, P>0.05",no significant change observed
same,"TG level vs model control group, Week 1","[1]; low-dose group (50 mg/kg), Week 1, P<0.01",significantly declined
same,Body weight throughout the study,"[1]; low-dose group (50 mg/kg), P>0.05",No significant changes were observed
same,Body weight,"[2]; BUDCA 30 mg/kg (G3), 6 weeks",40.3 ± 1.18 g
same,Weight ratio of liver,"[2]; BUDCA 30 mg/kg (G3), 6 weeks",4.33 ± 0.13%
same,Body weight,"[2]; BUDCA 100 mg/kg (G4), 6 weeks",41.7 ± 1.59 g
same,Weight ratio of liver,"[2]; BUDCA 100 mg/kg (G4), 6 weeks",4.15 ± 0.09%
same,Body weight,"[2]; BUDCA 300 mg/kg (G5), 6 weeks",41.5 ± 1.16 g
same,Weight ratio of liver,"[2]; BUDCA 300 mg/kg (G5), 6 weeks",4.27 ± 0.10%
same,Effect on symptoms of non-alcoholic fatty liver (overall efficacy),"[2]; BUDCA 30-300 mg/kg, berberine or ursodeoxycholic acid monotherapy 150 mg/Kg, 6 weeks",dose-dependently ameliorated symptoms of non-alcoholic fatty liver
same,Gastrointestinal side effects at the time of sacrifice,"[2]; BUDCA treated animals, 6 weeks i.g.",no gastrointestinal side effects were observed
same,ALT,"[2]; BUDCA 30 mg/kg (G3), 6 weeks",30.6 ± 4.37 U/L
same,AST,"[2]; BUDCA 30 mg/kg (G3), 6 weeks",148.3 ± 7.15 U/L
same,HDL-C,"[2]; BUDCA 30 mg/kg (G3), 6 weeks",2.33 ± 0.15 mmol/L
same,LDL-C,"[2]; BUDCA 30 mg/kg (G3), 6 weeks",1.05 ± 0.09 mmol/L
same,MDA,"[2]; BUDCA 30 mg/kg (G3), 6 weeks",12.34 ± 2.89
same,SOD,"[2]; BUDCA 30 mg/kg (G3), 6 weeks",61.05 ± 11.59 U/mL
same,TC,"[2]; BUDCA 30 mg/kg (G3), 6 weeks",5.49 ± 0.25 mmol/L
same,TG,"[2]; BUDCA 30 mg/kg (G3), 6 weeks",1.18 ± 0.20 mmol/L
same,ALT,"[2]; BUDCA 100 mg/kg (G4), 6 weeks",29.0 ± 3.95 U/L
same,AST,"[2]; BUDCA 100 mg/kg (G4), 6 weeks",140.2 ± 16.32 U/L
same,HDL-C,"[2]; BUDCA 100 mg/kg (G4), 6 weeks",2.26 ± 0.22 mmol/L
same,LDL-C,"[2]; BUDCA 100 mg/kg (G4), 6 weeks",1.06 ± 0.11 mmol/L
same,MDA,"[2]; BUDCA 100 mg/kg (G4), 6 weeks",8.02 ± 1.08 µM
same,SOD,"[2]; BUDCA 100 mg/kg (G4), 6 weeks",91.83 ± 4.90 U/mL
same,TC,"[2]; BUDCA 100 mg/kg (G4), 6 weeks",5.28 ± 0.50 mmol/L
same,TG,"[2]; BUDCA 100 mg/kg (G4), 6 weeks",0.92 ± 0.06 mmol/L
same,ALT,"[2]; BUDCA 300 mg/kg (G5), 6 weeks",27.8 ± 3.08 U/L
same,AST,"[2]; BUDCA 300 mg/kg (G5), 6 weeks",163.5 ± 11.63 U/L
same,HDL-C,"[2]; BUDCA 300 mg/kg (G5), 6 weeks",2.48 ± 0.15 mmol/L
same,LDL-C,"[2]; BUDCA 300 mg/kg (G5), 6 weeks",1.03 ± 0.22 mmol/L
same,MDA,"[2]; BUDCA 300 mg/kg (G5), 6 weeks",7.78 ± 1.66 µM
same,SOD,"[2]; BUDCA 300 mg/kg (G5), 6 weeks",97.54 ± 4.88 U/mL
same,TC,"[2]; BUDCA 300 mg/kg (G5), 6 weeks",5.95 ± 0.54 mmol/L
same,TG,"[2]; BUDCA 300 mg/kg (G5), 6 weeks",0.85 ± 0.06 mmol/L
